Results as given in BindingDB's records for PubMed 40136287 (CSIR-Institute of Microbial Technology).

Target: Metallo-beta-lactamase type 2 (Klebsiella pneumoniae, UniProt C7C422)
Assay: Inhibition of NDM1 (unknown origin)

Metallo-beta-lactamase type 2, sequence (C7C422 whole entry): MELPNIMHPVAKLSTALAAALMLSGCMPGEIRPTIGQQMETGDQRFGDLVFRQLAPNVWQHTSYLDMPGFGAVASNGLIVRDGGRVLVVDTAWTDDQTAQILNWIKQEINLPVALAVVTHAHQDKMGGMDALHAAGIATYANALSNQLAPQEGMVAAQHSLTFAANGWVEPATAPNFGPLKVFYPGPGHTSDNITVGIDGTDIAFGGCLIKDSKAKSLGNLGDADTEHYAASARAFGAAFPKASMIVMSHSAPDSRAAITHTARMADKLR

Compound: O=C(O)c1ccccn1
- IC50: 17.1 µM
